Values of other authors in US11986533B2, “Macromonomers and bottle brush polymers for delivery of biological agents” (Regents of the University of Minnesota, priority 2021, dated 2024).

## O=C1NC(=O)C(c2ccccc2)(c2ccccc2)N1 [phenytoin]
  log P: 2.14
